Where two headings read alike, the source gives them in different places.
Columns and labels:
EmrE [1] = biological target: T1, EmrE (Escherichia coli, UniProt P23895, S64V); experiment: biochemical
EmrE [2] = biological target: T1, EmrE; experiment: biochemical; remark: listed apart in the source
EmrE [3] = biological target: EmrE (Escherichia coli, UniProt P23895, G90V); experiment: biochemical
EmrE [4] = biological target: EmrE (Escherichia coli, UniProt P23895, N102V); experiment: biochemical
EmrE [5] = biological target: EmrE (Escherichia coli, UniProt P23895); experiment: [3H]-TPP+ saturation binding, purified protein in DDM
EmrE [6] = biological target: EmrE (Escherichia coli, UniProt P23895, A59L); experiment: biochemical
EmrE [7] = biological target: EmrE (Escherichia coli, UniProt P23895, N102A); experiment: biochemical
EmrE [8] = biological target: EmrE (Escherichia coli, UniProt P23895, I101G); experiment: biochemical
EmrE [9] = biological target: EmrE (Escherichia coli, UniProt P23895, M21G); experiment: biochemical
[10] = biological target: the molecule itself; experiment: 1H-15N TROSY-HSQC NMR (peak doubling of the asymmetric homodimer)

Molecule: CC[P+](c1ccccc1)(c1ccccc1)c1ccccc1 [EtTPP^+]
- Kd (EmrE [1]): 11400 ± 100 nM

Molecule: c1ccc([P+](c2ccccc2)(c2ccccc2)c2ccccc2)cc1 [TPP^+]
- Kd (EmrE [2]): 1 ± 0.6 nM
- Kd (EmrE [3]): 5.3 ± 0.6 nM
- Kd (EmrE [4]): 1.2 ± 0.2 nM
- Kd (EmrE [5]): 0.8 ± 0.1 nM
- Kd (EmrE [6]): 23.4 ± 2.4 nM
- Kd (EmrE [7]): 2.3 ± 0.4 nM
- Kd (EmrE [8]): 2.6 ± 1.3 nM
- Kd (EmrE [9]): 4 ± 0.7 nM

Molecule: C[P+](c1ccccc1)(c1ccccc1)c1ccccc1 [MeTPP^+]
- Kd (EmrE [1]): 60000 ± 10000 nM

B1: wild type EmrE (natural protein)
chain: MNPYIYLGGAILAEVIGTTLMKFSEGFTRLWPSVGTIICYCASFWLLAQTLAYIPTGIAYAIWSGVGIVLISLLSWGFFGQRLDLPAIIGMMLICAGVLIINLLSRSTPH
- binding result [10]: binds

B2: EmrE M21G (natural protein)
chain: MNPYIYLGGAILAEVIGTTLGKFSEGFTRLWPSVGTIICYCASFWLLAQTLAYIPTGIAYAIWSGVGIVLISLLSWGFFGQRLDLPAIIGMMLICAGVLIINLLSRSTPH
- binding result [10]: binds

B3: EmrE A59L (natural protein)
chain: MNPYIYLGGAILAEVIGTTLMKFSEGFTRLWPSVGTIICYCASFWLLAQTLAYIPTGILYAIWSGVGIVLISLLSWGFFGQRLDLPAIIGMMLICAGVLIINLLSRSTPH
- binding result [10]: binds

B4: S64V-EmrE (natural protein)
chain: MNPYIYLGGAILAEVIGTTLMKFSEGFTRLWPSVGTIICYCASFWLLAQTLAYIPTGIAYAIWVGVGIVLISLLSWGFFGQRLDLPAIIGMMLICAGVLIINLLSRSTPH
- binding result [10]: binds

B5: EmrE I101G (natural protein)
chain: MNPYIYLGGAILAEVIGTTLMKFSEGFTRLWPSVGTIICYCASFWLLAQTLAYIPTGIAYAIWSGVGIVLISLLSWGFFGQRLDLPAIIGMMLICAGVLIGNLLSRSTPH
- binding result [10]: binds

B6: EmrE N102A (natural protein)
chain: MNPYIYLGGAILAEVIGTTLMKFSEGFTRLWPSVGTIICYCASFWLLAQTLAYIPTGIAYAIWSGVGIVLISLLSWGFFGQRLDLPAIIGMMLICAGVLIIALLSRSTPH
- binding result [10]: binds

B7: EmrE N102V (natural protein)
chain: MNPYIYLGGAILAEVIGTTLMKFSEGFTRLWPSVGTIICYCASFWLLAQTLAYIPTGIAYAIWSGVGIVLISLLSWGFFGQRLDLPAIIGMMLICAGVLIIVLLSRSTPH
- binding result [10]: binds
